Test results published in patent US12448394B2, “Heterocyclic pyrazole derivatives as type III receptor tyrosine kinase inhibitors” (DEVELOPMENT CENTER FOR BIOTECHNOLOGY, priority 2019, dated 2025).

How the values were obtained:
[1] = system: Molm-14 human acute myeloid leukemia cell with FLT3-ITD mutation; assay: Molm-14 cell proliferation assay (CellTiter 96); format: cell-based; details: Homo sapiens; Molm-14 cells, 72 hours treatment, CellTiter96; read-out: anti-proliferation activity Molm-14 (FLT3-ITD), IC50 ranking
Experimental: (§1) Inhibitions of cell growths by compounds were measured using CellTiter™-96 assay. The cytotoxicities of compounds of the invention were evaluated in cell line panels with different signaling pathway dependencies, including MV4-11 human acute myeloid leukemia cell with FLT3-ITD mutation, Molm-14 human acute myeloid leukemia cell with FLT3-ITD mutation, THP-1 human acute monocytic leukemia cell with NRAS G12D mutation, A375 melanoma cell with BRAF V600E mutation, and HCC827 NSCLC cell with EGFR exon 19 deletion mutation.
The compounds disclosed herein were tested in Molm-14 cell proliferation assay to determine their cellular potencies against FLT3 signal pathway dependent cell growths. Molm-14 cells are human acute myeloid leukemia (AML) cells harboring ligand-independent FLT3-ITD activating mutation, which renders the abnormal proliferation of the AML cells FLT3 signaling pathway dependent. Inhibition of FLT3 kinase activity will result in reduced growths and/or cell deaths. […] Briefly, cells were grown in RPMI 1640 medium supplemented with 10% heat inactivated fetal bovine serum and incubated at 37° C. in 5% CO2 atmosphere. Cells were allowed to expand until reaching saturation, at which point they were sub-cultured or harvested for assay use.
(§2) MV4-11, Molm-14, THP-1, A375, and HCC827 cells were seeded into 96-well plates at 6500, 25000, 5000, 2000 and 8000 cells/well, respectively, and incubated at 37° C., 5% CO2 overnight. Then, these seeded cells were treated with increasing concentrations of the test compounds and incubated for another 72 hours. At the end of the incubation, CellTiter96® AQueous One Solution Reagent (Promega, […]) was added and incubated for the additional 2˜4 hours. Cell viability was determined by measuring absorbance at 490 nm using EMax® microplate reader (Molecular Devices, San Jose, CA, USA).

[2] = system: HCC827 NSCLC cell with EGFR exon 19 deletion mutation; assay: HCC827 cell proliferation assay (counter screen); format: cell-based, human; details: Homo sapiens, HCC827 cells, 72 hours treatment, CellTiter96, read-out: anti-proliferation activity HCC827 EGFR Exon19 del, IC50 ranking
Experimental: as §1
(§3) HCC827 cells are non-small cell lung carcinoma (NSCLC) cells encoding EGFR exon 19 deletion mutation, which renders the cell growth dependent on EGFR signaling instead of class III RTKs signaling. HCC827 cells (catalog #CRL-2868) were obtained from the ATCC. Briefly, cells were cultured in RPMI1640 medium supplemented with 10% FBS and incubated at 37° C. in 5% CO2 atmosphere. Cells were allowed to expand until reaching saturation, at which point they were sub-cultured or harvested for assay use.
as §2

[3] = biological target: T1, MET kinase (Homo sapiens, UniProt P08581); assay: MET kinase assay (AlphaScreen, counter screen); format: biochemical; details: read-out: Ranking of IC50 values, MET
T1 construct: purchased SignalChem
Experimental: Because MET kinase belonged to Class VIII RTK family have one transmembrane a chain linked with one extracellular β chain which is different form Class III RTK family with 5 Immunoglobin-like extracellular domains. Standard assay conditions were 1 ng of recombinant MET kinase (SignalChem) with 3 ng Biotin-conjugated Poly-(Glu 4: Tyr 1) (Cisbio) in the assay buffer ([…], 10 mM MOPs, pH 7.0, 0.21 mM EDTA, 0.5% glycerol, 1 mg/mL BSA, 0.01% 2-mercaptoethanol, 0.001% Brij35, 10 mM MgCl2) in a final volume of 25 μL. Reactions were incubated at 30° C. for 45 min and stopped by adding 5 μL of 50 mM EDTA. Analysis of resulting product using an AlphaScreen kit and counted with Enspire Alpha (PerkinElmer). […] The IC50 values of inhibitors were determined after carrying out assays with each compound at serially diluted concentrations in duplication. The results were analyzed using linear regression software (GraphPad Prism 5; GraphPad Software Inc.)

[4] = system: MV4-11 human acute myeloid leukemia cell with FLT3-ITD mutation; assay: MV4-11 cell proliferation assay (CellTiter 96); format: cell-based; details: Homo sapiens, MV4-11, 72 h, MV4-11 cells, 72 hours treatment, CellTiter96; read-out: anti-proliferation activity MV4-11 (FLT3-ITD), IC50 ranking
Experimental: as §1
The compounds disclosed herein were tested in MV4-11 cell proliferation assay to determine their cellular potencies against FLT3 signal pathway dependent cell growths. MV4-11 cells are human acute myeloid leukemia (AML) cells harboring ligand-independent FLT3-ITD activating mutation, which renders the abnormal proliferation of AML cells FLT3 signaling pathway dependent. Inhibition of FLT3 kinase activity will result in reduced growths and/or cell deaths. MV4-11 cells (catalog #CRL-9591) were obtained from the American Type Culture Collection (ATCC, Manassas, VA). Briefly, cells were grown in IMDM medium supplemented with 10% heat inactivated fetal bovine serum and incubated at 37° C. in 5% CO2 atmosphere. Cells were allowed to expand until reaching saturation, at which point they were sub-cultured or harvested for assay use.
as §2

[5] = biological target: T2, PDGFRα kinase (Homo sapiens, UniProt P16234); assay: PDGFRα kinase assay (AlphaScreen); format: biochemical; details: read-out: Ranking of IC50 values, PDGFRα
T2 construct: purchased SignalChem
Experimental: Inhibition of PDGFRα kinase activity by a test compound disclosed herein was estimated by AlphaScreen (PerkinElmer). Standard assay conditions were 1.5 ng of recombinant PDGFRα kinase (SignalChem) with 6 ng Biotin-conjugated Poly-(Glu 4: Tyr 1) (Cisbio) in the assay buffer (10 μM ATP, 10 mM MOPs, pH 7.0, 0.21 mM EDTA, 0.5% glycerol, 1 mg/mL BSA, 0.01% 2-mercaptoethanol, 0.001% Brij35, 10 mM MgCl2) in a final volume of 25 μL. Reactions were incubated at 30° C. for 30 min and stopped by adding […] of 50 mM EDTA. Analysis of resulting product using an AlphaScreen kit and counted with Enspire Alpha (PerkinElmer). […] The IC50 values of inhibitors were determined after carrying out assays with each compound at serially diluted concentrations in duplication. The results were analyzed using linear regression software (GraphPad Prism 5; GraphPad Software Inc.)

[6] = system: A375 melanoma cell with BRAF V600E mutation; assay: A375 cell proliferation assay (counter screen); format: cell-based, human; details: Homo sapiens, A-375, A375 cells, 72 hours treatment, CellTiter96, read-out: anti-proliferation activity A375 BRAF V600E, IC50 ranking
Experimental: as §1
as §3, with “A375” for “HCC827”, “melanoma” for “non-small cell lung carcinoma (NSCLC)”, “BRFA V600E” for “EGFR exon 19 deletion”, “BRAF” for “EGFR”, “#CRL-1619)” for “#CRL-2868)”, “DMEM containing” for “RPMI1640 medium supplemented with”
as §2

T1 sequence (P08581 25-1390): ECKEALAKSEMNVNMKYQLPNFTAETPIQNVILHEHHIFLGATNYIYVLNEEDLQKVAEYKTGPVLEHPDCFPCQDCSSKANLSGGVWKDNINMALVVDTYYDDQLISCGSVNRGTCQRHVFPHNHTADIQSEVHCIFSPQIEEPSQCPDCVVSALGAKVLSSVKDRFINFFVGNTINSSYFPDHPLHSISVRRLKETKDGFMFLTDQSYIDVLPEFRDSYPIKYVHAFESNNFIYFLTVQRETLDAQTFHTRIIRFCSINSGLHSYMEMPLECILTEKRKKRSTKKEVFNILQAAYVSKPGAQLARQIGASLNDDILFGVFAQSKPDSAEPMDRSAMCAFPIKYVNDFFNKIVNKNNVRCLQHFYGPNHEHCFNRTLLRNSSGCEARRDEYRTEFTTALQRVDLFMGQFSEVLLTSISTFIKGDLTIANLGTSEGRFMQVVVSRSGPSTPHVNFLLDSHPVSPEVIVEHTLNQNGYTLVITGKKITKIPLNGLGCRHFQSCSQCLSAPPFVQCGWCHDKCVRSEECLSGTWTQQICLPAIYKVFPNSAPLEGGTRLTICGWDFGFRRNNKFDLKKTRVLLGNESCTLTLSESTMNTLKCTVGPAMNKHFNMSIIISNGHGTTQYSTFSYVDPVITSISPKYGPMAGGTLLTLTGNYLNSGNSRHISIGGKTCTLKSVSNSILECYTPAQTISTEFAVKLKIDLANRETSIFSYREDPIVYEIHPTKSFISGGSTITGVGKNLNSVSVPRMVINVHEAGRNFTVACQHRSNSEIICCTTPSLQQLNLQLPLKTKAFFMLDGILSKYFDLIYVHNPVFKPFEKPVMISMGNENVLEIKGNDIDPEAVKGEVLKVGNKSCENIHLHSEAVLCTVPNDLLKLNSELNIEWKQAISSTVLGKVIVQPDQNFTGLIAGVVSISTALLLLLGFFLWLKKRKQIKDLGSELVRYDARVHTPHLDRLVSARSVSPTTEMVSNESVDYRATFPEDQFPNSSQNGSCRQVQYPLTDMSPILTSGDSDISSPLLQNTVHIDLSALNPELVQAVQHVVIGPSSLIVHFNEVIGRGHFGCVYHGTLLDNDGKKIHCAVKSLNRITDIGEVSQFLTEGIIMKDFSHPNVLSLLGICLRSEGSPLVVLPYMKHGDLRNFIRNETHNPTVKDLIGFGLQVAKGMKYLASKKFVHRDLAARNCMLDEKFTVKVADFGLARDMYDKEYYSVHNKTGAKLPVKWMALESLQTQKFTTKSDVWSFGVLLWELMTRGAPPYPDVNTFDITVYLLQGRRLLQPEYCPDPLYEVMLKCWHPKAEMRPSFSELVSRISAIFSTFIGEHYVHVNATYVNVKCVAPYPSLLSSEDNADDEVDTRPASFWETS
T2 sequence (P16234 24-1089): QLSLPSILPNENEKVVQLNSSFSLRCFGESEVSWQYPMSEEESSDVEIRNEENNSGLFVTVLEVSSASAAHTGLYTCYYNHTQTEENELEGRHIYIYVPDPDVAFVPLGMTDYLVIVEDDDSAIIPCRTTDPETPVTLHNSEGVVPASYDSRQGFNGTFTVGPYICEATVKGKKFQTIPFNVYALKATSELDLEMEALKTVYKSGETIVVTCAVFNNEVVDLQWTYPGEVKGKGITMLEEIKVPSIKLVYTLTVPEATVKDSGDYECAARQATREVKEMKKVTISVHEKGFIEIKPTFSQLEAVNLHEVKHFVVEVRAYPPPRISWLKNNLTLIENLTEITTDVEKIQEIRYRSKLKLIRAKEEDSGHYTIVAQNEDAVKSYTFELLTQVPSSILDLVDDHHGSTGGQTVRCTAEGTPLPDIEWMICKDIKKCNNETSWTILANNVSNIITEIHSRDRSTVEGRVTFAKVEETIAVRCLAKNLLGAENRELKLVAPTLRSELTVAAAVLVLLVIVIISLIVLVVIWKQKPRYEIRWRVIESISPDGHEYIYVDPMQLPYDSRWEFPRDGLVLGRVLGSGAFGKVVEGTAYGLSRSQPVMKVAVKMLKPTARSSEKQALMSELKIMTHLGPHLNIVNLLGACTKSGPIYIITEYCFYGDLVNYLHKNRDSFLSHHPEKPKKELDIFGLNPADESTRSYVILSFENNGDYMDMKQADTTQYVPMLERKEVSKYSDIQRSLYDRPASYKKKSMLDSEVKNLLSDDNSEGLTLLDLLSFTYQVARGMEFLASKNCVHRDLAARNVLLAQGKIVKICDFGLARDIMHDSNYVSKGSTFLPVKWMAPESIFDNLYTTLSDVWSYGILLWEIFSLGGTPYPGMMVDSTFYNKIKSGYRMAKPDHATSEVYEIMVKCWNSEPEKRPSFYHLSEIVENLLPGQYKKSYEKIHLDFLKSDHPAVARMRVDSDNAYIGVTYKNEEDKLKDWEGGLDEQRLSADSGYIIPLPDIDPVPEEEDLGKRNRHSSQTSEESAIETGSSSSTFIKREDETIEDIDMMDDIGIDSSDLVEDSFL

| SMILES | IC50 [1] [nM] | IC50 [3] [nM] | IC50 [4] [nM] | IC50 [5] [nM] | IC50 [2] [nM] | IC50 [6] [nM] |
| --- | --- | --- | --- | --- | --- | --- |
| CN(C)c1ccc(-c2cc3c(s2)Cc2c(-c4ccc5cnn(C)c5c4)n[nH]c2-3)cn1 [Compound 5, N,N-dimethyl-5-(3-(1-methyl-1H-indazol-6-yl)-1,4-dihydrothieno [2′,3′:4,5]cyclopenta[1,2-c]pyrazol-6-yl)pyridin-2-amine] | 100 to 300 | > 1000 | 30 to 100 | 10 to 30 | > 10000 | > 10000 |
| c1cc(-c2cc3c(s2)Cc2c(-c4ccc5cn[nH]c5c4)n[nH]c2-3)ccc1CN1CCOCC1 [Compound 6, 4-(4-(3-(1H-indazol-6-yl)-1,4-dihydrothieno[2′,3′:4,5]cyclopenta[1,2-c]pyrazol-6-yl)benzyl)morpholine] | < 30 | > 1000 | < 30 | 1 to 10 | > 10000 | > 10000 |
| C[C@@H]1CN(Cc2ccc(-c3cc4c(s3)Cc3c(-c5ccc6cn[nH]c6c5)n[nH]c3-4)cc2)C[C@H](C)O1 [Compound 7, (2S,6R)-4-(4-(3-(1H-indazol-6-yl)-1,4-dihydrothieno[2′,3′:4,5]cyclopenta [1,2-c]pyrazol-6-yl)benzyl)-2,6-dimethylmorpholine] | < 30 | > 1000 | < 30 | 1 to 10 | > 10000 | > 10000 |
| C[C@@H]1CN(Cc2ccc(-c3cc4c(s3)Cc3c(-c5ccc6cnn(C)c6c5)n[nH]c3-4)cn2)C[C@H](C)O1 [Compound 9, (2S,6R)-2,6-dimethyl-4-((5-(3-(1-methyl-lH-indazol-6-yl)-1,4-dihydro-thieno[2′,3′:4,5]cyclopenta [1,2-c]pyrazol-6-yl)pyridin-2-yl)methyl) morpholine] | < 30 | > 1000 | < 30 | 1 to 10 | > 10000 | > 10000 |
| Cn1ncc2ccc(-c3n[nH]c4c3Cc3sc(-c5ccc(CN6CCOCC6)nc5)cc3-4)cc21 [Compound 10, 4-((5-(3-(1-methyl-1H-indazol-6-yl)-1,4-dihydro-thieno[2′,3′:4,5]cyclopenta [1,2-c]pyrazol-6-yl)pyridin-2-yl)methyl)morpholine] | < 30 | > 1000 | < 30 | 1 to 10 | > 10000 | > 10000 |
| Cc1ccc(-c2cc3c(s2)Cc2c(-c4ccc5cnn(C)c5c4)n[nH]c2-3)cn1 [Compound 11, 3-(1-methyl-1H-indazol-6-yl)-6-(6-methylpyridin-3-yl)-1,4-dihydrothieno [2′,3′:4,5]cyclopenta[1,2-c] pyrazole] | 30 to 100 | > 1000 | < 30 | 10 to 30 | > 10000 | > 10000 |
| C[C@@H]1CN(Cc2cccc(-c3cc4c(s3)Cc3c(-c5ccc6cnn(C)c6c5)n[nH]c3-4)c2)C[C@H](C)O1 [Compound 12, (2S,6R)-2,6-dimethyl-4-(3-(3-(1-methyl-1H-indazol-6-yl)-1,4-dihydrothieno [2′,3′:4,5]cyclopenta[1,2-c]pyrazol-6-yl)benzyl) morpholine] | 100 to 300 | > 1000 | 30 to 100 | 30 to 100 | > 10000 | > 10000 |
| CN1CCN(C(=O)c2ccc(-c3cc4c(s3)Cc3c(-c5ccc6cnn(C)c6c5)n[nH]c3-4)cc2)CC1 [Compound 15, (4-(3-(1-methyl-1H-indazol-6-yl)-1,4-dihydrothieno[2′,3′:4,5]cyclopenta[1,2-c]pyrazol-6-yl)phenyl)(4-methyl-piperazin-1-yl)methanone] | < 30 | > 1000 | < 30 | 1 to 10 | > 10000 | > 10000 |

Further lines, with some results ahead:

| IC50 [1] [nM] | IC50 [3] [nM] | IC50 [4] [nM] | IC50 [5] [nM] | SMILES | IC50 [2] [nM] | IC50 [6] [nM] |
| --- | --- | --- | --- | --- | --- | --- |
| 30 to 100 | > 1000 | < 30 | 1 to 10 | Cn1ncc2ccc(-c3n[nH]c4c3Cc3sc(-c5ccc(CN6CCOCC6)cc5)cc3-4)cc21 [Compound 8, 4-(4-(3-(1-methyl-1H-indazol-6-yl)-1,4-dihydro-thieno[2′,3′:4,5]cyclopenta [1,2-c]pyrazol-6-yl)benzyl) morpholine] | > 10000 | > 10000 |
| 30 to 100 | > 1000 | 30 to 100 | 10 to 30 | Cn1ncc2ccc(-c3n[nH]c4c3Cc3sc(-c5cccc(CN6CCOCC6)c5)cc3-4)cc21 [Compound 13, 4-(3-(3-(1-methyl-1H-indazol-6-yl)-1,4-dihydro-thieno[2′,3′:4,5]cyclopenta [1,2-c]pyrazol-6-yl)benzyl) morpholine] | > 10000 | > 10000 |
| 30 to 100 | > 1000 | < 30 | 10 to 30 | CN1CCN(Cc2cccc(-c3cc4c(s3)Cc3c(-c5ccc6cnn(C)c6c5)n[nH]c3-4)c2)CC1 [Compound 14, 3-(1-methyl-1H-indazol-6-yl)-6-(3-((4-methylpiperazin-1-yl)methyl)phenyl)-1,4-dihydrothieno [2′,3′:4,5]cyclopenta[1,2-c] pyrazole] | > 10000 | 1000 to 10000 |
| – | > 1000 | – | 1 to 10 | Cn1ncc2ccc(-c3n[nH]c4c3Cc3sc(-c5ccc(CN6CCOCC6)cn5)cc3-4)cc21 [Compound 95, 4-((6-(3-(1-methyl-1H-indazol-6-yl)-1,4-dihydro-thieno[2′,3′:4,5]cyclopenta [1,2-c]pyrazol-6-yl)pyridin-3-yl)methyl) morpholine] | – | – |
